Assay [1] addresses T1, dsA2: HLA-A*02:01(Y84C/A139C) disulfide mutant heavy chain / β2m complex (Homo sapiens, UniProt P04439, A163C/D140Y/D185E/D98H/E176V/E277Q/G131W/G231S/I119V/I121R/I166T/I218V/L300P/L318F/N151K/N90K/P208A/P217A/Q86G/Q94H/R138H/R169H/T345S/Y108C).
T1 construct: made in house; host or cells: Escherichia coli (pET3a)
The experiment in a line: biochemical. The format is binding.

For assay [2], the target named is T1, dsA2: HLA-A*02:01(Y84C/A139C) disulfide mutant heavy chain / β2m complex. The experiment in a line: native mass spectrometry (nMS) of peptide binding to empty dsA2.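 Further: native nano-electrospray MS on Q-Tof II in positive mode, dsA2 at 10 µM with peptide 50–200 µM, incubated ≥10 min on ice, argon collision gas.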
The target of assay [3] is T2, dsA2: HLA-A*02:01(Y84C/A139C) disulfide mutant heavy chain / β2m complex (Homo sapiens, UniProt P04439, D140Y/D185E/D98H/E176V/E277Q/G131W/G231S/I119V/I121R/I166T/I218V/L300P/L318F/N151K/N90K/P208A/P217A/Q86G/Q94H/R138H/R169H/T345S/A163C/Y108C).
T2 construct: made in house; host or cells: Escherichia coli (pET3a)
The description is as above. The conditions noted are these: for AUC dsA2 (empty) / AUC dsA2/erucamide / AUC dsA2/pep / AUC dsA2/pep/pep: cone 150 V, ratio 1:5, raw data, mean of >=3 measurements.

The target in assay [4] is empty disulfide-stabilized HLA-A*02:01(Y84C/A139C) in complex with beta-2 microglobulin (human). The experiment in a line: isothermal analysis of nanoscale differential scanning fluorimetry (iDSF).

“And” between values parts separate entries of the source, which are not always exact repeats. Equal entries are not always repeated. Ends that are not written are not given here. Peptide text beside a SMILES is read from it.

Turning to MVATV [MV5], the figures for the Kd in assay [1], in assay [2] (Kd,high) and in assay [2] (Kd,low) were 1.6 µM, 110 µM and 3 µM, respectively. Also, the “AUC dsA2 (empty)” value in assay [3] (acceleration voltage 10 V) is given as 64%; in assay [3] (acceleration voltage 25 V), 63%; in assay [3] (acceleration voltage 50 V) it was 80%. Besides, the figures for the “AUC dsA2/erucamide” value in assay [3] (acceleration voltage 10 V), in assay [3] (acceleration voltage 25 V) and in assay [3] (acceleration voltage 50 V) were 10.4%, 10.4% and 3.3%, respectively. The “AUC dsA2/pep” value in assay [3] (acceleration voltage 10 V) was 23%; in assay [3] (acceleration voltage 25 V), 23%; in assay [3] (acceleration voltage 50 V), 15%. The “AUC dsA2/pep/pep” value in assay [3] (acceleration voltage 10 V) was 3.2%; in assay [3] (acceleration voltage 25 V) it was 3.7%; in assay [3] (acceleration voltage 50 V) it was 1.5%.

“NM5 (NLVPM), truncated NV9 variant (peptide)”: the Kd in assay [4] was determined as 11 µM.

In the case of NLVPMVA [NA7], the Kd in assay [1] is 3.6 µM; in assay [2] (Kd,high), 210 µM; in assay [2] (Kd,low), 2 µM. Also, the figures for the “AUC dsA2 (empty)” value in assay [3] (acceleration voltage 10 V), in assay [3] (acceleration voltage 25 V) and in assay [3] (acceleration voltage 50 V) were 75%, 68% and 86%, respectively. The figures for the “AUC dsA2/erucamide” value in assay [3] (acceleration voltage 10 V), in assay [3] (acceleration voltage 25 V) and in assay [3] (acceleration voltage 50 V) were 8%, 11% and 1.8%, respectively. For the same molecule, the “AUC dsA2/pep” value in assay [3] (acceleration voltage 10 V) turned out to be 16%; in assay [3] (acceleration voltage 25 V) it was 19%; in assay [3] (acceleration voltage 50 V) it was 12%. The “AUC dsA2/pep/pep” value in assay [3] (acceleration voltage 10 V) is listed as 0.8%; in assay [3] (acceleration voltage 25 V), 1.4%; in assay [3] (acceleration voltage 50 V), 0.5%.

In assay [4], “PV6 (PMVATV), truncated NV9 variant (peptide)” registered a Kd of 15 µM.

PMVATV [PV6]: the Kd in assay [1] was determined as 15 µM; in assay [2] (Kd,high), 300 µM; in assay [2] (Kd,low), 15 µM. Besides, the results for the “AUC dsA2 (empty)” value in assay [3] (acceleration voltage 10 V), in assay [3] (acceleration voltage 25 V) and in assay [3] (acceleration voltage 50 V) were 68%, 68% and 90%, respectively. Besides, the figures for the “AUC dsA2/erucamide” value in assay [3] (acceleration voltage 10 V), in assay [3] (acceleration voltage 25 V) and in assay [3] (acceleration voltage 50 V) were 19%, 19% and 5%, respectively. For the same molecule, the figures for the “AUC dsA2/pep” value in assay [3] (acceleration voltage 10 V), in assay [3] (acceleration voltage 25 V) and in assay [3] (acceleration voltage 50 V) were 12%, 13% and 5%, respectively. The “AUC dsA2/pep/pep” value in assay [3] (acceleration voltage 10 V) was found to be 0.5%; in assay [3] (acceleration voltage 25 V), 0.5%; in assay [3] (acceleration voltage 50 V), 0.1%.

Regarding `CCCCCCCC/C=C\CCCCCCCCCCCC(N)=O` [erucamide, (Z)-docos-13-enamide], the “occupancy of dsA2 with erucamide” value in assay [3] (no peptide, linear extrapolation to cone voltage <=48 V (experimentally unfeasible)) was 100%.

As to GLGGGGGGV [GV9], the equilibrium dissociation constant (Kd) in assay [1] (dsA2 2.2 µM, 20 mM Tris pH 8, 150 mM NaCl, twofold serial dilution, 11 concentrations, two independent measurements, values marked * (below 200 nM) not reliable, read-out: Kd,iDSF) came to 0.36 µM; in assay [2] (read-out: Kd,high), 35 µM; in assay [2] (read-out: Kd,low), 0.5 µM. Besides, the entries for the “AUC dsA2 (empty)” value in assay [3] (acceleration voltage 10 V), in assay [3] (acceleration voltage 25 V) and in assay [3] (acceleration voltage 50 V) were 52%, 50% and 62%, respectively. In addition, the “AUC dsA2/erucamide” value in assay [3] (acceleration voltage 10 V) was determined as 4.3%; in assay [3] (acceleration voltage 25 V), 5%; in assay [3] (acceleration voltage 50 V), 1.7%. In addition, the “AUC dsA2/pep” value was 43 ± 2% and 43% in assay [3] (acceleration voltage 10 V); 43% in assay [3] (acceleration voltage 25 V); 35% in assay [3] (acceleration voltage 50 V). In addition, the “AUC dsA2/pep/pep” value was 1.5 ± 0.4% and 1.5% in assay [3] (acceleration voltage 10 V); 2.2% in assay [3] (acceleration voltage 25 V); 1.1% in assay [3] (acceleration voltage 50 V).

For the molecule NLVPM [NM5], the Kd is 11 µM in assay [1], 180 µM in assay [2] (Kd,high) and 15 µM in assay [2] (Kd,low). For the same molecule, the results for the “AUC dsA2 (empty)” value in assay [3] (acceleration voltage 10 V), in assay [3] (acceleration voltage 25 V) and in assay [3] (acceleration voltage 50 V) were 62%, 64% and 90.3%, respectively. Moreover, the “AUC dsA2/erucamide” value in assay [3] (acceleration voltage 10 V) came to 19%; in assay [3] (acceleration voltage 25 V) it was 17%; in assay [3] (acceleration voltage 50 V), 1.3%. For the same molecule, the “AUC dsA2/pep” value in assay [3] (acceleration voltage 10 V) was found to be 17.9%; in assay [3] (acceleration voltage 25 V) it was 18.0%; in assay [3] (acceleration voltage 50 V), 8.1%. Further, the “AUC dsA2/pep/pep” value in assay [3] (acceleration voltage 10 V) was 1.0%; in assay [3] (acceleration voltage 25 V), 1.2%; in assay [3] (acceleration voltage 50 V) it was 0.3%.

As for `CC(C)C[C@H](NC(=O)[C@@H](N)CC(N)=O)C(=O)N[C@H](C(=O)N1CCC[C@H]1C(=O)O)C(C)C` [NP4] (H-NLVP-OH), the Kd in assay [1] is 50 µM; in assay [2], 350 µM and 100 µM. Also, the “AUC dsA2 (empty)” value in assay [3] (acceleration voltage 10 V) is given as 55%; in assay [3] (acceleration voltage 25 V) it was 57.8%; in assay [3] (acceleration voltage 50 V), 92.4%. Moreover, the “AUC dsA2/erucamide” value in assay [3] (acceleration voltage 10 V) was 33.8%; in assay [3] (acceleration voltage 25 V), 31.1%; in assay [3] (acceleration voltage 50 V) it was 4.3%. Also, the “AUC dsA2/pep” value is recorded as 11% in assay [3] (acceleration voltage 10 V), 10.4% in assay [3] (acceleration voltage 25 V) and 2.6% in assay [3] (acceleration voltage 50 V). Also, the “AUC dsA2/pep/pep” value amounted to 0.6% in assay [3] (acceleration voltage 10 V), 0.69% in assay [3] (acceleration voltage 25 V) and 0.8% in assay [3] (acceleration voltage 50 V).

Turning to “MV5 (MVATV), truncated NV9 variant (peptide)”, in assay [4], the Kd came out at 1.6 µM.

In turn, “NV6 (NLVPMV), truncated NV9 variant (peptide)” had a Kd in assay [4] of 9 µM.

Regarding “NA7 (NLVPMVA), truncated NV9 variant (peptide)”, in assay [4], the Kd stood at 3.6 µM.

For `CC(C)[C@H](N)C(=O)N[C@@H](C)C(=O)N[C@H](C(=O)N[C@H](C(=O)O)C(C)C)[C@@H](C)O` [VV4] (H-VATV-OH), the dissociation constant Kd in assay [1] worked out at 50 µM. Moreover, in assay [3] (acceleration voltage 10 V), the “AUC dsA2 (empty)” value was 68%, the “AUC dsA2/erucamide” value amounted to 18.093%, the “AUC dsA2/pep” value is given as 14% and the “AUC dsA2/pep/pep” value is 0%. In assay [3] (acceleration voltage 25 V), the “AUC dsA2 (empty)” value is reported as 68%, the “AUC dsA2/erucamide” value worked out at 17.6%, the “AUC dsA2/pep” value is reported as 14% and the “AUC dsA2/pep/pep” value amounted to 0%. Moreover, in assay [3] (acceleration voltage 50 V), the “AUC dsA2 (empty)” value came out at 92%, the “AUC dsA2/erucamide” value amounted to 4.0%, the “AUC dsA2/pep” value is listed as 4.1% and the “AUC dsA2/pep/pep” value was found to be 0%.

With “VV7 (VPMVATV), truncated NV9 variant (peptide)”, the Kd in assay [4] was 7.8 µM.

“VV4 (VATV), truncated NV9 variant (peptide)” displayed a Kd in assay [4] of 50 µM.

Molecule LVPMVATV [LV8] returned a Kd in assay [1] of 0.008 µM. Moreover, in assay [3] (acceleration voltage 10 V), the “AUC dsA2 (empty)” value amounted to 42%, the “AUC dsA2/erucamide” value turned out to be 1.7%, the “AUC dsA2/pep” value is 54% and the “AUC dsA2/pep/pep” value was 2.8%. Besides, in assay [3] (acceleration voltage 25 V), the “AUC dsA2 (empty)” value came to 40%, the “AUC dsA2/erucamide” value was 1.5%, the “AUC dsA2/pep” value is 54% and the “AUC dsA2/pep/pep” value is 3.9%. In assay [3] (acceleration voltage 50 V), the “AUC dsA2 (empty)” value amounted to 53%, the “AUC dsA2/erucamide” value stood at 0.4%, the “AUC dsA2/pep” value amounted to 45% and the “AUC dsA2/pep/pep” value was 1.6%.

As for NLVPMVAT [NT8], the Kd in assay [1] was 2.6 µM. Besides, the dissociation constant Kd in assay [2] is 92 µM and 30 µM. Also, in assay [3] (acceleration voltage 10 V), the “AUC dsA2 (empty)” value is reported as 47.3%, the “AUC dsA2/erucamide” value is 24%, the “AUC dsA2/pep” value is 28% and the “AUC dsA2/pep/pep” value is recorded as 0.6%. In assay [3] (acceleration voltage 25 V), the “AUC dsA2 (empty)” value was 50%, the “AUC dsA2/erucamide” value is 21%, the “AUC dsA2/pep” value is on record as 28.2% and the “AUC dsA2/pep/pep” value amounted to 1%. Also, in assay [3] (acceleration voltage 50 V), the “AUC dsA2 (empty)” value is 75%, the “AUC dsA2/erucamide” value came to 1.6%, the “AUC dsA2/pep” value is 23% and the “AUC dsA2/pep/pep” value is 0.2%.
